For assay [1], the target named is purified human plasma kallikrein (Homo sapiens (Human), UniProt P03952). As to the kind of experiment: Plasma kallikrein enzyme inhibition assay (chromogenic substrate S-2302). It counts as biochemical.
Assay [2] concerns the target purified human Factor XIa (Homo sapiens (Human), UniProt P03951). As to the kind of experiment: Factor XIa enzyme inhibition assay (chromogenic substrate S-2366).
The mark [3] stands for this setting: measured at 25° C. (no asterisk).
Setting [4] is: read-out: Factor XIa Ki, measured at 25° C.

Where a name gives a salt, the structure may show the parent alone. Read-outs that look alike come from different tables or passages of the source.

Sequence of purified human plasma kallikrein (P03952 391-638): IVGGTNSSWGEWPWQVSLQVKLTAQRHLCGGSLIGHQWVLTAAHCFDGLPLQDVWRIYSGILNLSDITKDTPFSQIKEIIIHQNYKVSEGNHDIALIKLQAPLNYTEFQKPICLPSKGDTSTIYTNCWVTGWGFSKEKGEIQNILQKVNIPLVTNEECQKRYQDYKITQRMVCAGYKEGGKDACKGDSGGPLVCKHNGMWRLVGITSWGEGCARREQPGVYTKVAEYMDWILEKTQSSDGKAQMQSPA
Sequence of purified human plasma kallikrein (P03952 20-390 partner): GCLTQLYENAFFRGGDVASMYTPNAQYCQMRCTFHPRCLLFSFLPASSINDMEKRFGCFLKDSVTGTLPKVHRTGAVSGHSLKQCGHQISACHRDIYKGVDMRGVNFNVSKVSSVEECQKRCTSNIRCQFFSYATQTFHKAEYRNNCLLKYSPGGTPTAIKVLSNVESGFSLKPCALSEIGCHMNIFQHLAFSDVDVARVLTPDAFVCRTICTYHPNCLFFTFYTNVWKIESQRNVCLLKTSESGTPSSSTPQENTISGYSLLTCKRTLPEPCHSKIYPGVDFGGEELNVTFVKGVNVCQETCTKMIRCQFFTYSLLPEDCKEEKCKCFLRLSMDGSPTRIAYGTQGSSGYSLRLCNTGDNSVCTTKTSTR
Sequence of purified human Factor XIa (P03951 388-625): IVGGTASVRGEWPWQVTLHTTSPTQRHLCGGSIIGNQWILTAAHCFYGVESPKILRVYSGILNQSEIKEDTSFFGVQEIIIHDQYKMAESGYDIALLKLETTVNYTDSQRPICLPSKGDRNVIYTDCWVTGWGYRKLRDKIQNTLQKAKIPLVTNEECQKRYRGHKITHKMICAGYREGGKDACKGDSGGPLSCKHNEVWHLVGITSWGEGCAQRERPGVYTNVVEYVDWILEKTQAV
Sequence of purified human Factor XIa (P03951 19-387 partner): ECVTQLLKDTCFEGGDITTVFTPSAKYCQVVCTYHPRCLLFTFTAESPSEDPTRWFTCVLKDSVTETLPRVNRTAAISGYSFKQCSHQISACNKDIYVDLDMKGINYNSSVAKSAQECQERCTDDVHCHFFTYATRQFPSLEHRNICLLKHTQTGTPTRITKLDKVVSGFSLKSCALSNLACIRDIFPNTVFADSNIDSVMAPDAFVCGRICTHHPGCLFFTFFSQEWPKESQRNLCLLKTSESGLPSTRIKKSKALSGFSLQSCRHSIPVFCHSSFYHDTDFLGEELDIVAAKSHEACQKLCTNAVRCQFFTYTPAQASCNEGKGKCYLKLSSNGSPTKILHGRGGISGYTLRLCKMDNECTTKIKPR

Regarding `O=C(O)c1ccc(NC(=O)C2c3cccc(N4CC[C@H](O)C4=O)c3CCN2C(=O)c2cn(-c3cccc(Cl)c3F)nn2)cc1` (stereo partly drawn) [Example 196, 4-(2-(1-(3-Chloro-2-fluorophenyl)-1H-1,2,3-triazole-4-carbonyl)-5-((S)-3-hydroxy-2-oxopyrrolidin-1-yl)-1,2,3,4-tetrahydroisoquinoline-1-carboxamido)benzoic acid, TFA salt], the values for the Ki in assay [1] (setting [3]) and in assay [2] (setting [4]) were 11.9 nM and 7.1 nM, respectively.
The corresponding values for `CO[C@@H]1CCN(c2cccc3c2CCN(C(=O)c2cn(-c4cccc(Cl)c4F)nn2)C3C(=O)Nc2ccc(C(=O)O)cc2)C1` (mixture of isomers) [Example 84, 4-(2-(1-(3-chloro-2-fluorophenyl)-1H-1,2,3-triazole-4-carbonyl)-5-((R)-3-methoxypyrrolidin-1-yl)-1,2,3,4-tetrahydroisoquinoline-1-carboxamido)benzoic acid, TFA salt] are 15.8 nM and under 5 nM.
The corresponding values for `CO[C@@H]1CCN(c2cccc3c2CCN(C(=O)[C@H]2CC(c4cccc(Cl)c4F)=NO2)[C@@H]3C(=O)Nc2ccc(C(=O)O)cc2)C1` [Example 300, 4-((S)-2-((R)-3-(3-chloro-2-fluorophenyl)-4,5-dihydroisoxazole-5-carbonyl)-5-((R)-3-methoxypyrrolidin-1-yl)-1,2,3,4-tetrahydroisoquinoline-1-carboxamido)benzoic acid, TFA salt] are 4.15 nM and under 5 nM.
As for `CN(C)C(=O)C1CCN(c2cccc3c2CCN(C(=O)c2cnn(-c4cccc(Cl)c4F)c2)[C@@H]3C(=O)Nc2ccc(C(=O)O)cc2)CC1` (single isomer, unassigned) [Example 61, TFA salt], the Ki – broadly, the dissociation constant of the complex between target and ligand, obtained from inhibition or displacement – in assay [1] (setting [3]) is 5.89 nM; in assay [2] (setting [4]) it was under 5 nM.
The corresponding values for `Cn1cc2c(n1)CCN(C(=O)c1cn(-c3cccc(Cl)c3F)nn1)C2C(=O)Nc1ccc(C(=O)O)cc1` (centres unmarked) [Example 220, 4-(5-(1-(3-Chloro-2-fluorophenyl)-1H-1,2,3-triazole-4-carbonyl)-2-methyl-4,5,6,7-tetrahydro-2H-pyrazolo[4,3-c]pyridine-4-carboxamido)benzoic acid] are 179 nM and 769 nM.
Regarding `COC1CCN(c2cccc3c2CCN(C(=O)c2cc(-c4c(F)ccc(Cl)c4F)no2)C3C(=O)Nc2ccc(C(=O)O)cc2)CC1` (racemic) [Example 265, 4-(2-(3-(3-chloro-2,6-difluorophenyl)isoxazole-5-carbonyl)-5-(4-methoxypiperidin-1-yl)-1,2,3,4-tetrahydroisoquinoline-1-carboxamido)benzoic acid, TFA salt], the results for the Ki in assay [1] (setting [3]) and in assay [2] were 178 nM and 13.2 nM, respectively.
With `COC1CCN(c2cccc3c2CCN(C(=O)c2cnn(-c4ccncc4)c2N)C3C(=O)Nc2ccc(C(=O)O)cc2)CC1` (racemic) [Example 313, 4-(2-(5-amino-1-(pyridin-4-yl)-1H-pyrazole-4-carbonyl)-5-(4-methoxypiperidin-1-yl)-1,2,3,4-tetrahydroisoquinoline-1-carboxamido)benzoic acid, TFA salt], the Ki in assay [1] (measured at 37° C. (*)) was over 6000 nM; in assay [2] it was 4820 nM.
For the compound `COc1ncccc1-c1cccc2c1CCN(C(=O)c1cn(-c3cccc(Cl)c3F)nn1)C2C(=O)Nc1ccc(C(=O)O)cc1` (centres unmarked) [Example 153, 4-(2-(1-(3-chloro-2-fluorophenyl)-1H-1,2,3-triazole-4-carbonyl)-5-(2-methoxypyridin-3-yl)-1,2,3,4-tetrahydroisoquinoline-1-carboxamido)benzoic acid, TFA salt], the Ki in assay [1] (setting [3]) turned out to be 62.2 nM; in assay [2] (setting [4]), 5.73 nM.
With `COC1CCN(c2cccc3c2CCN(C(=O)c2cn(-c4c(F)ccc(Cl)c4F)nn2)C3C(=O)Nc2ccc(C(=O)O)cc2)CC1` (racemic) [Example 254, 4-(2-(1-(3-chloro-2,6-difluorophenyl)-1H-1,2,3-triazole-4-carbonyl)-5-(4-methoxypiperidin-1-yl)-1,2,3,4-tetrahydroisoquinoline-1-carboxamido)benzoic acid, TFA salt], the values for the Ki in assay [1] (setting [3]) and in assay [2] were 26.7 nM and under 5 nM, respectively.
Turning to `N#Cc1cccc2c1CCN(C(=O)c1cn(-c3cccc(Cl)c3F)nn1)C2C(=O)Nc1ccc(C(=O)O)cc1` (centres unmarked) [Example 108, 4-(2-(1-(3-Chloro-2-fluorophenyl)-1H-1,2,3-triazole-4-carbonyl)-5-cyano-1,2,3,4-tetrahydroisoquinoline-1-carboxamido)benzoic acid], the Ki in assay [1] (setting [3]) amounted to 50 nM; in assay [2] (setting [4]) it was 48.8 nM.
The corresponding values for `COC1CCN(c2cccc3c2CCN(C(=O)c2cn(-c4cccc(Cl)c4F)nn2)C3C(=O)Nc2ccc(C(=O)O)cc2)CC1` (centres unmarked) [Example 215, 4-(2-(1-(3-chloro-2-fluorophenyl)-1H-1,2,3-triazole-4-carbonyl)-5-(4-methoxypiperidin-1-yl)-1,2,3,4-tetrahydroisoquinoline-1-carboxamido)benzoic acid, TFA salt] are 20.2 nM and under 5 nM.
For `O=C(Nc1ccc(-c2ncc[nH]2)cc1)[C@@H]1c2cccc(-c3cncnc3)c2CCN1C(=O)c1cn(-c2cccc(Cl)c2F)nn1` [Example 138, (S)-N-(4-(1H-Imidazol-2-yl)phenyl)-2-(1-(3-chloro-2-fluorophenyl)-1H-1,2,3-triazole-4-carbonyl)-5-(pyrimidin-5-yl)-1,2,3,4-tetrahydroisoquinoline-1-carboxamide, TFA salt], the Ki in assay [1] (measured at 37° C. (*)) is 25.9 nM; in assay [2] (setting [4]), under 5 nM.
Take `N#Cc1ccc(-c2cccc3c2CCN(C(=O)c2cn(-c4cccc(Cl)c4F)nn2)[C@H]3C(=O)Nc2ccc(C(=O)O)cc2)cn1` [Example 15, (R)-4-(2-(1-(3-Chloro-2-fluorophenyl)-1H-1,2,3-triazole-4-carbonyl)-5-(6-cyanopyridin-3-yl)-1,2,3,4-tetrahydroisoquinoline-1-carboxamido)benzoic acid, TFA salt]: the values for the Ki in assay [1] (setting [3]) and in assay [2] (setting [4]) were 219 nM and 9.12 nM, respectively.
On to `O=C(O)c1ccc(NC(=O)C2c3cccc(-c4cncnc4)c3CCN2C(=O)c2cn(-c3cccc(Cl)c3F)nn2)cc1` (centres unmarked) [Example 12, 4-(2-(1-(3-Chloro-2-fluorophenyl)-1H-1,2,3-triazole-4-carbonyl)-5-(pyrimidin-5-yl)-1,2,3,4-tetrahydroisoquinoline-1-carboxamido)benzoic acid], for which the figures for the inhibition constant Ki in assay [1] (setting [3]) and in assay [2] (setting [4]) were 9.88 nM and under 5 nM, respectively.
With `COC1CCN(c2cccc3c2CCN(C(=O)c2cccc(-c4cccc(Cl)c4F)n2)C3C(=O)Nc2ccc(C(=O)O)cc2)CC1` (centres unmarked) [Example 325, 4-(2-(6-(3-Chloro-2-fluorophenyl)picolinoyl)-5-(4-methoxypiperidin-1-yl)-1,2,3,4-tetrahydroisoquinoline-1-carboxamido)benzoic acid, 2 TFA salt], the Ki in assay [1] (measured at 37° C. (*)) was over 6000 nM; in assay [2] (setting [4]), 2400 nM.
Turning to `COC1CCN(c2cccc3c2CCN(C(=O)c2cnn(-c4cccc(Cl)c4)c2)C3C(=O)Nc2ccc(C(=O)O)cc2)CC1` (centres unmarked) [Example 329, 4-(2-(1-(3-chlorophenyl)-1H-pyrazole-4-carbonyl)-5-(4-methoxypiperidin-1-yl)-1,2,3,4-tetrahydroisoquinoline-1-carboxamido)benzoic acid, TFA salt], the results for the Ki in assay [1] (setting [3]) and in assay [2] (setting [4]) were 229 nM and 26.6 nM, respectively.
Regarding `CN(C)C1CCN(c2cccc3c2CCN(C(=O)c2cn(-c4cccc(Cl)c4F)nn2)[C@@H]3C(=O)Nc2ccc(C(=O)O)cc2)CC1` (single isomer, unassigned) [Example 49, bis-TFA salt], the values for the inhibitory constant (Ki) in assay [1] (setting [3]) and in assay [2] (setting [4]) were 1.39 nM and under 5 nM, respectively.
On the same counts, the results for `CN1CCC(NC(=O)c2cccc3c2CCN(C(=O)c2cn(-c4cccc(Cl)c4F)nn2)C3C(=O)Nc2ccc(C(=O)O)cc2)CC1` (centres unmarked) [Example 192, 4-(2-(1-(3-Chloro-2-fluorophenyl)-1H-1,2,3-triazole-4-carbonyl)-5-((1-methylpiperidin-4-yl)carbamoyl)-1,2,3,4-tetrahydroisoquinoline-1-carboxamido)benzoic acid, TFA salt] are 55.6 nM and 9.97 nM.
Take `O=C(O)c1ccc(NC(=O)[C@@H]2c3cccc(N4CCN(CC(F)(F)F)CC4)c3CCN2C(=O)[C@H]2CC(c3cccc(Cl)c3F)=NO2)cc1` [Example 230, 4-((S)-2-((R)-3-(3-Chloro-2-fluorophenyl)-4,5-dihydroisoxazole-5-carbonyl)-5-(4-(2,2,2-trifluoroethyl)piperazin-1-yl)-1,2,3,4-tetrahydroisoquinoline-1-carboxamido)benzoic acid, 2 TFA salt]: the figures for the Ki in assay [1] (measured at 37° C. (*)) and in assay [2] (read-out: Factor XIa Ki) were 12.3 nM and under 5 nM, respectively.
Take `O=C(O)c1ccc(NC(=O)C2c3cccc(N4CCC(N5CCCC5)CC4)c3CCN2C(=O)C2CC(c3cccc(Cl)c3)=NO2)cc1` (single isomer, unassigned) [Example 204, 4-(2-(3-(3-chlorophenyl)-4,5-dihydroisoxazole-5-carbonyl)-5-(4-(pyrrolidin-1-yl)piperidin-1-yl)-1,2,3,4-tetrahydroisoquinoline-1-carboxamido)benzoic acid, 2 TFA salt]: the Ki in assay [1] (setting [3]) was 11 nM; in assay [2] (setting [4]), under 5 nM.
As for `Cn1cnc(-c2cccc3c2CCN(C(=O)c2cn(-c4cccc(Cl)c4F)nn2)C3C(=O)Nc2ccc(C(=O)O)cc2)c1` (centres unmarked) [Example 246, 4-(2-(1-(3-Chloro-2-fluorophenyl)-1H-1,2,3-triazole-4-carbonyl)-5-(1-methyl-1H-imidazol-4-yl)-1,2,3,4-tetrahydroisoquinoline-1-carboxamido)benzoic acid, TFA salt], the inhibition constant Ki in assay [1] (measured at 37° C. (*)) is 29.7 nM; in assay [2] (setting [4]) it was under 5 nM.
Consider `O=C1CCC2(CCN(c3cccc4c3CCN(C(=O)c3cn(-c5cccc(Cl)c5F)cn3)C4C(=O)Nc3ccc(C(=O)O)cc3)CC2)O1` (centres unmarked) [Example 77, 4-(2-(1-(3-chloro-2-fluorophenyl)-1H-imidazole-4-carbonyl)-5-(2-oxo-1-oxa-8-azaspiro[4.5]decan-8-yl)-1,2,3,4-tetrahydroisoquinoline-1-carboxamido)benzoic acid, TFA salt], for which the Ki is 7.96 nM in assay [1] (setting [3]) and under 5 nM in assay [2] (setting [4]).

For the origin of these results see patent US9738655B2, “Tetrahydroisoquinolines containing substituted azoles as factor XIa inhibitors” (BRISTOL-MYERS SQUIBB COMPANY, priority 2013, dated 2017).
